Data reported in patent publication US20140256771A1, “COMPOUNDS THAT MODULATE INTRACELLULAR CALCIUM” (CalciMedica, Inc., priority 2011, published 2014).

Legend:
Orai1/STIM1 = molecular target: T1, Orai1/STIM1 (Homo sapiens, UniProt Q96D31); assay: Fluorescence-based assay of store-operated calcium entry in Orai1/STIM1 stable cells; assay type: cell-based; conditions: Table iv; HEK-293 cells stably expressing human STIM1 and Orai1; 50% inhibition of Peak-Basal fluo-4 signal; read-out: Orai1/STIM1 (IC50, μmol)
T1 construct: expressed in transfected cells; host or cells: HEK-293
Method: A. Fluorescence-based Assay of Store-Operated Calcium Entry in Orai1/STIM1 Stable Cells.
Cells stably expressing recombinant human STIM1 and Orai1 are generated by transfecting a human Orai1 expression plasmid (pcDNA3.1-Orai1-cmyc) into HEK-293 cells stably overexpressing human STIM1 (Roos et al. 2005 JCB 169(3): 435-445). Colonies of cells stably expressing both STIM1 and Orai1 proteins are selected and then subcloned by limiting dilution. Cells were cultured at 37° C./6% CO2 in complete medium with 10% FBS and appropriate selection markers.
The day prior to performing the assay Orai1/STIM1 stable cells are plated in 50 μL of complete medium at 90-95% confluence in a 384 well plate. Cells are grown at 37° C./6% CO2 overnight. On the day of the assay, 1.5 μM fluo-4-AM (Invitrogen) in complete medium is added to the cells, which are then incubated for 1 hour at RT. Cells are washed once in Ca^2+-free HBSS (Hank's buffered saline solution) and 35 μl of Ca^2+-free HBSS is added to each well. Test compounds are added to wells in a 10 μL Ca^2+-free HBSS solution, prepared at 4.5× the desired final concentration, and incubated for 30 minutes at RT. The initial baseline fluorescence signal is then measured with a FLIPR^384 (Molecular Devices) plate reader. Calcium entry is initiated by adding 5 μl of 10× CaCl2 (10 mM) in HBSS, and changes in cellular fluorescence are measured with the FLIPR^384 plate reader. In each well, the magnitude of the fluorescence signal as a result of calcium entry into the cell is determined by calculating the difference between the peak fluorescence signal measured after calcium addition and the initial baseline fluorescence signal (designated Peak-Basal). IC50 values are typically calculated as the concentration that inhibited 50% of the Peak-Basal signal (Table A).

RBL-2H3 cells = assay: Fluorescence-based assay of store-operated calcium entry in RBL-2H3 cells; assay type: cell-based, rat; conditions: Rattus norvegicus, RBL-2H3; Table iv; thapsigargin store depletion; 50% inhibition of Upslope; read-out: RBL-2H3 (IC50, μmol)
Method: B. Fluorescence-based Assay of Store-Operated Calcium Entry in RBL-2H3Cells.
RBL-2H3 cells are obtained from ATCC and maintained in complete medium with 10% FBS at 37° C./6% CO2.
The day prior to performing the assay, RBL-2H3 cells are plated in 50 μL of complete medium in a 384 well plate. Cells are grown at 37° C./6% CO2 overnight and grow to 50-60% confluence by the next day. On the assay day, 1.5 μM Fluo-4-AM dye (Invitrogen) in complete medium is added and incubated for 1 hour at RT. Cells are washed twice in Ca^2+-free HBSS buffer and 35 μL Ca^2+-free HBSS buffer is added to each well. 10 μL of a test compound prepared in a Ca^2+-free HBSS solution at 4.5× of the desired concentration is added to a well and incubated for 5 minutes at RT. 10 μL of thapsigargin prepared in a Ca^2+-free HBSS solution at 5.5× of the desired concentration (5.5 uM) is added to each well and incubated for an additional 25 minutes. The initial baseline fluorescence signal is measured with a FLIPR^384 (Molecular Devices) plate reader. 5 μL of 12× calcium in HBSS (12 mM) is added and changes in cellular fluorescence are measured with the FLIPR^384 plate reader. In each well, the change in the fluorescent signal as a function of time due to calcium entry into the cell is determined by calculating the difference between the fluorescent signal measured 7 seconds after calcium addition and the initial baseline fluorescence signal at time zero (t=0). This parameter is designated Upslope. The IC50 value is calculated as the concentration at which 50% of the Upslope is inhibited.

STIM1 and Orai1 = STIM1 and Orai1 (Homo sapiens, UniProt Q96D31); conditions: HEK293 cells co-expressing STIM1 and Orai1; cited from earlier work
Jurkat cells [1] = conditions: cited from earlier work
Jurkat cells [2] = conditions: cited from earlier work; remark: listed apart in the source

T1 sequence (Q96D31 whole entry): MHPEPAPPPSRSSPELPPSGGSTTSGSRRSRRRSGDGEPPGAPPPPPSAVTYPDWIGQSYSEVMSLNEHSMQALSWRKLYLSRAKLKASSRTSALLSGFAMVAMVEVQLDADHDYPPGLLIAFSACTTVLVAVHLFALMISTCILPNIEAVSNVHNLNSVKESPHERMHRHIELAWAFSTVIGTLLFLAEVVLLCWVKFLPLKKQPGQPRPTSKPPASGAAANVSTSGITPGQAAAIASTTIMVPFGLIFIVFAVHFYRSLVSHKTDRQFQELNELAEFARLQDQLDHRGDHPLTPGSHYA
Sequence of STIM1 and Orai1 (Q96D31 whole entry, species assumed): as the sequence (Q96D31 whole entry) above

IC50 (Orai1/STIM1) [nM] | IC50 (RBL-2H3 cells) [nM] | SMILES | block of store dependent Ca2+ entry (STIM1 and Orai1) | inhibition of proliferation (Jurkat cells [1]) | inhibition of SOCE (Jurkat cells [2])
< 600 | < 600 | Cn1nc(C(F)(F)F)cc1-c1ccc(NC(=O)c2c(F)cccc2F)cc1F | – | – | –
< 600 | < 600 | Cn1nc(C(F)(F)F)cc1-c1ccc(NC(=O)c2ccccc2F)cc1F | – | – | –
< 600 | < 600 | Cc1cccc(F)c1C(=O)Nc1ccc(-c2cc(C(F)(F)F)nn2C)c(F)c1 | – | – | –
600 to 1200 | < 600 | Cc1cnccc1C(=O)Nc1ccc(-c2cc(C(F)(F)F)nn2C)c(F)c1 | – | – | –
< 600 | < 600 | Cc1nnsc1C(=O)Nc1ccc(-c2cc(C(F)(F)F)nn2C)c(F)c1 | – | – | –
< 600 | < 600 | Cc1ncsc1C(=O)Nc1ccc(-c2cc(C(F)(F)F)nn2C)c(F)c1 | – | – | –
< 600 | < 600 | Cn1nc(C(F)(F)F)cc1-c1ccc(NC(=O)c2c(F)cccc2F)c(F)c1 | – | – | –
< 600 | < 600 | Cn1nc(C(F)(F)F)cc1-c1ccc(NC(=O)c2c(F)cncc2F)c(F)c1 | – | – | –
> 1200 | < 600 | Cn1nc(C(F)(F)F)cc1-c1c(F)cc(NC(=O)c2c(F)cccc2F)cc1F | – | – | –
< 600 | < 600 | Cn1nc(C(F)(F)F)cc1-c1c(F)cc(NC(=O)c2ccccc2F)cc1F | – | – | –
< 600 | < 600 | Cn1nc(C(F)(F)F)cc1-c1c(F)cc(NC(=O)c2ccc(F)cc2F)cc1F | – | – | –
600 to 1200 | < 600 | Cn1nc(C(F)(F)F)cc1-c1c(F)cc(NC(=O)c2c(F)cncc2F)cc1F | – | – | –
< 600 | < 600 | Cn1nc(C(F)(F)F)cc1-c1ccc(NC(=O)c2c(F)cccc2F)cc1 | – | – | –
< 600 | < 600 | Cn1nc(C(F)(F)F)cc1-c1ccc(NC(=O)c2ccccc2F)cc1 | – | – | –
< 600 | < 600 | Cn1nc(C(F)(F)F)cc1-c1ccc(NC(=O)c2ccc(F)cc2F)cc1 | – | – | –
< 600 | < 600 | Cn1nc(C(F)(F)F)cc1-c1ccc(NC(=O)c2c(F)cncc2F)cc1 | – | – | –
600 to 1200 | < 600 | O=C(Nc1ccc(-n2nc(C(F)(F)F)cc2C(F)(F)F)cc1)c1ccncc1F | – | – | –
> 1200 | < 600 | O=C(Nc1ccc(-n2nc(C(F)(F)F)cc2C(F)(F)F)cc1)c1c(F)cncc1F | – | – | –
> 1200 | < 600 | Cc1cc2c(cc1-c1ccc(NC(=O)c3c(F)cccc3F)cc1)OC(F)(F)O2 | – | – | –
600 to 1200 | < 600 | Cc1cc2c(cc1-c1ccc(NC(=O)c3ccccc3F)cc1)OC(F)(F)O2 | – | – | –
> 1200 | < 600 | Cc1cc2c(cc1-c1ccc(NC(=O)c3c(F)cncc3F)cc1)OC(F)(F)O2 | – | – | –

IC50 (Orai1/STIM1) [nM] | IC50 (RBL-2H3 cells) [nM] | SMILES | block of store dependent Ca2+ entry (STIM1 and Orai1) | inhibition of proliferation (Jurkat cells [1]) | inhibition of SOCE (Jurkat cells [2])
600 to 1200 | < 600 | Cc1cc2c(cc1-c1ccc(NC(=O)c3ccncc3F)cc1)OC(F)(F)O2 | – | – | –
600 to 1200 | < 600 | Cc1cc2c(cc1-c1ccc(NC(=O)c3cncc(F)c3)cc1)OC(F)(F)O2 | – | – | –
600 to 1200 | < 600 | Cc1cc2c(cc1-c1ccc(NC(=O)c3snnc3C)cc1)OC(F)(F)O2 | – | – | –
600 to 1200 | < 600 | Cc1cc2c(cc1-c1ccc(NC(=O)c3scnc3C)cc1)OC(F)(F)O2 | – | – | –
> 1200 | < 600 | Cc1cc2c(cc1-c1ccc(NC(=O)c3c(F)cccc3F)cc1F)OC(F)(F)O2 | – | – | –
> 1200 | < 600 | Cc1cc2c(cc1-c1ccc(NC(=O)c3ccccc3F)cc1F)OC(F)(F)O2 | – | – | –
> 1200 | < 600 | Cc1cc2c(cc1-c1ccc(NC(=O)c3c(C)cccc3F)cc1F)OC(F)(F)O2 | – | – | –
> 1200 | < 600 | Cc1cc2c(cc1-c1ccc(NC(=O)c3c(F)cncc3F)cc1F)OC(F)(F)O2 | – | – | –
600 to 1200 | < 600 | Cn1nc(C(F)(F)F)cc1-c1ccc(NC(=O)c2c(F)ccc(F)c2F)cc1F | – | – | –
< 600 | < 600 | Cc1ccccc1C(=O)Nc1ccc(-c2cc(C(F)(F)F)nn2C)c(F)c1 | – | – | –
< 600 | < 600 | Cn1nc(C(F)(F)F)cc1-c1ccc(NC(=O)c2c(F)cc(F)cc2F)cc1 | – | – | –
< 600 | < 600 | Cn1nc(C(F)(F)F)cc1-c1ccc(NC(=O)c2c(F)ccc(F)c2F)cc1 | – | – | –
< 600 | < 600 | Cn1nc(C(F)(F)F)cc1-c1ccc(NC(=O)c2c(Cl)cnn2C)cc1 | – | – | –
< 600 | < 600 | Cc1cc(C(F)(F)F)nn1-c1ccc(NC(=O)c2ccccc2F)cc1 | – | – | –
600 to 1200 | < 600 | Cc1cc(C(F)(F)F)nn1-c1ccc(NC(=O)c2c(F)cccc2F)cc1 | – | – | –
< 600 | < 600 | Cc1cc(C(F)(F)F)nn1-c1ccc(NC(=O)c2ccc(F)cc2F)cc1 | – | – | –
600 to 1200 | < 600 | Cc1nnsc1C(=O)Nc1ccc(-n2nc(C(F)(F)F)cc2C)cc1 | – | – | –
> 1200 | < 600 | Cc1cc(C(F)(F)F)nn1-c1ccc(NC(=O)c2c(F)cncc2F)cc1 | – | – | –
> 1200 | < 600 | Cc1cc(C(F)(F)F)nn1-c1ccc(NC(=O)c2c(F)ccc(F)c2F)cc1 | – | – | –
– | – | NCCOB(c1ccccc1)c1ccccc1 [2-aminoethoxydiphenylborate] | completely blocked | – | –
– | – | Cc1nnsc1C(=O)Nc1ccc(-n2nc(C(F)(F)F)cc2C(F)(F)F)cc1 [BTP-2] | – | inhibits | inhibits
